Eight compounds from the Biogen ADME set (Fang et al. 2023) can be followed below.

Molecules are shown by their SMILES. In brackets after ≈: the same amount, converted by molar mass.

For the data set the following is noted: for aqueous solubility: pH 6.8.

With `COc1cc(CN2CCCNCC2)cc2c1OCO2`, the MDR1-MDCK efflux ratio was determined as 8.38; the intrinsic clearance, human liver microsomes is 5.17 mL/min/kg; the intrinsic clearance, rat liver microsomes was 72.9 mL/min/kg.

Broadly, the aqueous solubility is the concentration that dissolves in the medium under given conditions. A lower aqueous solubility goes with little dissolved substance. In the case of `O=C(c1cccc(Cl)c1)N1CCN(C(=O)c2ccc3ccccc3c2O)CC1`, the MDR1-MDCK efflux ratio came out at 0.678; the intrinsic clearance, human liver microsomes was found to be 28.8 mL/min/kg; the intrinsic clearance, rat liver microsomes amounted to 166 mL/min/kg; the aqueous solubility was 2.4 µg/mL (≈ 6.08 µM).

`N#Cc1cnc2ccccc2c1OCCO` had an intrinsic clearance, human liver microsomes of 10.4 mL/min/kg and an intrinsic clearance, rat liver microsomes of 12.7 mL/min/kg.

As to `Cc1cc(NC(=O)CCc2cnn(C)c2)c2ccccc2n1`, the MDR1-MDCK efflux ratio was 7.68; the intrinsic clearance, human liver microsomes was no more than 4.74 mL/min/kg; the intrinsic clearance, rat liver microsomes was determined as 25 mL/min/kg; the aqueous solubility is 43.2 µg/mL (≈ 147 µM).

On to `CC1(C)CCCN1C(=O)c1c(F)cc(C#N)cc1F`, for which the MDR1-MDCK efflux ratio was 0.663; the intrinsic clearance, human liver microsomes was no more than 4.74 mL/min/kg; the intrinsic clearance, rat liver microsomes came out at 69.7 mL/min/kg.

In turn, `Cc1[nH]ncc1-c1nn2c(Cc3ccccc3Cl)nnc2s1` had an aqueous solubility of 4.18 µg/mL (≈ 12.6 µM).

For `CN(C)c1cnn(CCC(C#N)(c2ccccc2)c2ccccc2)c(=O)c1`, the MDR1-MDCK efflux ratio came to 2.74; the intrinsic clearance, human liver microsomes amounted to 124 mL/min/kg; the intrinsic clearance, rat liver microsomes is 1260 mL/min/kg; the aqueous solubility was 22.2 µg/mL (≈ 62 µM).

Compound `O=C(O)c1c(O)c(Cc2ccc(Cl)cc2)nc2c3c(ccc12)CCCC3` returned an aqueous solubility of 0.79 µg/mL (≈ 2.15 µM).
